Source: patent US5446037A, “2-[(substituted) methylene]cephalosporin sulfones as antiinflammatory, antidegenerative and antithrombin agents” (Synphar Laboratories, Inc., priority 1993, dated 1995)

What follows are compounds tested against T1, human plasma thrombin (Homo sapiens, UniProt P00734) (assay: Inhibition of thrombin (Chromozym TH spectrophotometric end-point assay, 410 nm)). Conditions: Table II, pH 8.6, room temperature, 10 min pre-incubation, 30 min incubation.
T1 construct: purchased Boehringer, Montreal, Canada
Format: biochemical
Method: Determining the Inhibition of Thrombin
Lyophilized human plasma thrombin obtained from Boehringer, Montreal, Canada was dissolved in 0.5M Na, K-phosphate buffer (pH 7.0) and stored at +4° C.
Substrate: 0.5 mM Chromozym TH (tosyl-glycyl-prolylarginine-4-nitroanilide acetate) in DMSO
Inhibitor: 10 μM dissolved in DMSO
Temperature: room temperature (approx.).
A single inhibitor concentration (10 μM) was tested using a spectrophotometric end-point assay (1 ml final volume). Enzyme activity was monitored by formation of a product that absorbed light at 410 nm and an enzyme concentration which gave a rate of 0.01-0.02 AU/min was used. Enzyme and inhibitor were pre-incubated for 10 min in the final amounts of buffer and DMSO. The reaction was then started by the addition of substrate. After 30 min incubation the reaction was terminated by the addition of 10% SDS (0.1 ml) and the absorbance measured. Enzyme blanks were run concurrently to account for any background absorbance by the compound. Inhibition was calculated by the net A410 in the presence of inhibitor compared to that in the absence of inhibitor (DMSO controls).

Q: For `CO[C@H]1C(=O)N2C(C(=O)OC(C)(C)C)=C(COC(C)=O)/C(=C\c3ccco3)S(=O)(=O)[C@H]12` [drawing 34], which inhibition at 10 µM is on record?
A: 94.7%

Q: `CO[C@H]1C(=O)N2C(C(=O)OC(C)(C)C)=C(COC(C)=O)/C(=C\c3ccsc3)S(=O)(=O)[C@H]12` [drawing 35] was tested. Which inhibition at 10 µM did it give?
A: 98.9%

Q: With `CO[C@H]1C(=O)N2C(C(=O)OC(C)(C)C)=C(COC(C)=O)/C(=C/c3ccccc3F)S(=O)(=O)[C@H]12` [drawing 36] as the compound, how does the inhibition at 10 µM read?
A: 96.8%

Q: With `CO[C@H]1C(=O)N2C(C(=O)OC(C)(C)C)=C(COC(C)=O)/C(=C\c3ccccc3F)S(=O)(=O)[C@H]12` [drawing 37] as the compound, how does the inhibition at 10 µM read?
A: 98.5%

The compounds below were run against T2, human leukocyte elastase (HLE) (Homo sapiens, UniProt P08246) (assay: Human leukocyte elastase (HLE) inhibition (MeO-Suc-Ala-Ala-Pro-Val-pNA hydrolysis, absorbance at 410 nm)). Conditions: Table I; pH 7.6, 30° C., 10 min pre-incubation, 10% (v/v) DMSO.
T2 construct: purchased Elastin products, Missouri, U.S.A
T2 sequence (P08246 30-267): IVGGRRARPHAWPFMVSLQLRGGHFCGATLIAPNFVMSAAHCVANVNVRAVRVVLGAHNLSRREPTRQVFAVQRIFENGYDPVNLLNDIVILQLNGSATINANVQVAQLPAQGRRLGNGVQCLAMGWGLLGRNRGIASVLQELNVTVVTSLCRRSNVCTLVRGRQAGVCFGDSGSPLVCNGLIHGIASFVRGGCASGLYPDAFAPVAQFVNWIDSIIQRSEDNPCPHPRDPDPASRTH
Format: biochemical
Method: Determining HLE Inhibitory Activity
Human leukocyte elastase (HLE) obtained from Elastin products, Missouri, U.S.A., is dissolved in 0.05M sodium acetate containing 0.4M sodium chloride (pH 5.3) and stored at -20° C. Small aliquots of these stock solutions (1 μm) are used in the HLE assays.
Buffer: 0.01M Na, K-Phosphate, 0.5M NaCl (pH 7.6)
Substrate: 0,014M Meo-Suc-Ala-Ala-Pro-Val-pNA in DMSO
Inhibitor: various concentrations in DMSO
Enzyme: stock solution noted above
The stock solution of enzyme was equilibrated to 30° C. A cuvette containing buffer and inhibitor was equilibrated to 30° C. 10 μL of enzyme solution giving a rate of 0.04-0.05 AU/min in the absence of inhibitor, was mixed into the buffer/inhibitor solution and this mixture was incubated at 30° C. for 10 minutes. After this pre-incubation substrate was added to give a final concentration of […] and a final DMSO concentration of 10% (v/v). The rate of product formation, proportional to the change in absorbance at 410 nm, was monitored for two minutes following the addition of substrate. For a typical IC50 plot the rate was determined at 5-8 inhibitor concentrations (in duplicate) spanning 10-80% inhibition (in most cases). In most cases the data could be fit by linear least-squares and the IC50 determined from this plot.

Q: With `CO[C@H]1C(=O)N2C(C(=O)OC(C)(C)C)=C(COC(C)=O)/C(=C/c3cn(C)nn3)S(=O)(=O)[C@H]12` as the compound, how does the IC50 read?
A: 7.8 nM

Q: For `CO[C@H]1C(=O)N2C(C(=O)OC(C)(C)C)=C(COC(C)=O)/C(=C\c3cn(C)nn3)S(=O)(=O)[C@H]12`, which IC50 is on record?
A: 9.2 nM

Q: With `CO[C@H]1C(=O)N2C(C(=O)OC(C)(C)C)=C(COC(C)=O)/C(=C\c3cccnc3)S(=O)(=O)[C@H]12` as the compound, how does the IC50 read?
A: 7.2 nM

Q: Which IC50 does the source give for `CO[C@H]1C(=O)N2C(C(=O)OC(C)(C)C)=C(COC(C)=O)/C(=C/c3cccnc3)S(=O)(=O)[C@H]12` here?
A: 7.2 nM

Q: With `CO[C@H]1C(=O)N2C(C(=O)OC(C)(C)C)=C(C)/C(=C/c3cccnc3)S(=O)(=O)[C@H]12` as the compound, how does the IC50 read?
A: 35 nM

Q: How did the IC50 turn out when `CO[C@H]1C(=O)N2C(C(=O)OC(C)(C)C)=C(COC(C)=O)/C(=C/c3ccsc3)S(=O)(=O)[C@H]12` was run?
A: 6.4 nM

Q: `CO[C@H]1C(=O)N2C(C(=O)OC(C)(C)C)=C(C)/C(=C\c3cn(C)nn3)S(=O)(=O)[C@H]12` was tested. Which IC50 did it give?
A: 100 nM

Q: For `CO[C@H]1C(=O)N2C(C(=O)OC(C)(C)C)=C(C)/C(=C/c3cn(C)nn3)S(=O)(=O)[C@H]12`, which IC50 is on record?
A: 75 nM

Q: With `CO[C@H]1C(=O)N2C(C(=O)OC(C)(C)C)=C(COC(C)=O)/C(=C/c3ccccc3F)S(=O)(=O)[C@H]12` [drawing 21] as the compound, how does the IC50 read?
A: 5.8 nM

Q: `CO[C@H]1C(=O)N2C(C(=O)OC(C)(C)C)=C(COC(C)=O)/C(=C\c3ccccc3F)S(=O)(=O)[C@H]12` [drawing 22] was tested. Which IC50 did it give?
A: 6 nM

Q: With `CO[C@H]1C(=O)N2C(C(=O)OC(C)(C)C)=C(COC(C)=O)/C(=C\c3ccco3)S(=O)(=O)[C@H]12` [drawing 25] as the compound, how does the IC50 read?
A: 22 nM

Q: For `CO[C@H]1C(=O)N2C(C(=O)OC(C)(C)C)=C(COC(C)=O)/C(=C\c3ccsc3)S(=O)(=O)[C@H]12` [drawing 29], which IC50 is on record?
A: 6.4 nM
